Assay results reported in patent US9505742B2, “3,4-dihydro-2H-isoquinoline-1-one and 2,3-dihydro-isoindol-1-one compounds” (Hoffmann-La Roche Inc., priority 2013, dated 2016).

Experiments:
human CYP11B1 = target: T1, human CYP11B1 (Homo sapiens, UniProt P15538); test: G-402 cellular enzyme assay, human CYP11B1 (cortisol release, HTRF); assay type: cell-based; settings: G-402 cells expressing human CYP11B1; 1 μM Deoxycortisol
T1 construct: The expression plasmids contains the ORF for either human/cyno CYP11B1 or CYP11B2; expressed in transfected cells
T1 sequence (P15538 25-503): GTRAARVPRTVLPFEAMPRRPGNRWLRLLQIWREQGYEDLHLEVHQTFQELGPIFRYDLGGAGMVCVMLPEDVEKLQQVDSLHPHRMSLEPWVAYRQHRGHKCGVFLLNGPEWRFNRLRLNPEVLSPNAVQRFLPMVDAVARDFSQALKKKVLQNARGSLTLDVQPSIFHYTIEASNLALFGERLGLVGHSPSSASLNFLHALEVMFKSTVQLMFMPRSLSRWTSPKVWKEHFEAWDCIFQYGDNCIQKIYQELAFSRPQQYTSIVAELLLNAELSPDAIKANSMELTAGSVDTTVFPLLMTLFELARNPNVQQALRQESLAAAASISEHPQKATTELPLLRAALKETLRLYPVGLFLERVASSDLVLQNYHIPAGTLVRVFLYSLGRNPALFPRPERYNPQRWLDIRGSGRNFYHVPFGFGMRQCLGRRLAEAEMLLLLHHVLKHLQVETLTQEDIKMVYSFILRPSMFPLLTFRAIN
From the text: (§1) Herein we identified the use of the G-402 cell line as a host cell to ectopically express (transiently or stably) enzymes of the CYP11 family. Specifically we developed stable G-402 cells expressing ectopically human CYP11B1, human CYP11B2, human CYP11A1, cynmolgus CYP11B1 or cynomolgus CYP11B2 enzyme activity. Importantly the identified cell line G-402 expresses co-factors (adrenodoxin and adrenodoxin reductase) important for the activity of the CYP11 family and no relevant enzyme activity of the CYP11 family (in comparison to H295R cells) was detected in these cells. Therefore the G-402 cell line is uniquely suited as a host cell for the ectopic expression of enzymes from the CYP11 family. G-402 cells can be obtained from ATCC (CRL-1440) and were originally derived from a renal leiomyoblastoma.
(§2) The expression plasmids contains the ORF for either human/cyno CYP11B1 or CYP11B2 under the control of a suitable promoter (CMV-promoter) and a suitable resistance marker (neomycin). Using standard techniques the expression plasmid is transfected into G-402 cells and these cells are then selected for expressing the given resistance markers. Individual cell-clones are then selected and assessed for displaying the desired enzymatic activity using 11-Deoxycorticosterone (Cyp11B2) or 11-Deoxycortisol (Cyp11B) as a substrate.
(§3) G-402 cells expressing CYP11 constructs were established as described above and maintained in McCoy's 5a Medium Modified, ATCC Catalog No. 30-2007 containing 10% FCS and 400 μg/ml G418 (Geneticin) at 37° C. under an atmosphere of 5% CO2/95% air. Cellular enzyme assays were performed in DMEM/F12 medium containing 2.5% charcoal treated FCS and appropriate concentration of substrate (0.3-10 uM 11-Deoxycorticosterone, 11-Deoxycortisol or Corticosterone). For assaying enzymatic activity, cells were plated onto 96 well plates and incubated for 16 h. An aliquot of the supernatant is then transferred and analyzed for the concentration of the expected product (Aldosterone for CYP11B2; Cortisol for CYP11B1). The concentrations of these steroids can be determined using HTRF assays from CisBio analyzing either Aldosterone or Cortisol.
(§4) Inhibition of the release of produced steroids can be used as a measure of the respective enzyme inhibition by test compounds added during the cellular enzyme assay. The dose dependent inhibition of enzymatic activity by a compound is calculated by means of plotting added inhibitor concentrations (x-axes) vs. measured steroid/product level (y-axes). The inhibition is then calculated by fitting the following 4-parameter sigmoidal function (Morgan-Mercer-Flodin (MMF) model) to the raw data points using the least squares method:
(§5) [formula] wherein, A is the maximum y value, B is the EC50 factor determined using XLFit, C is the minimum y value and D is the slope value.
(§6) EC50 values for compounds claimed herein were tested with the G402-based assay system described. Cyp11B2 enzyme activity was tested in presence of 1 μM Deoxycorticosterone and variable amounts of inhibitors; Cyp11B1 enzyme activity was tested in presence of 1 μM Deoxycortisol and variable amounts of inhibitors.

human CYP11B2 = target: T2, human CYP11B2 (Homo sapiens, UniProt P19099); test: G-402 cellular enzyme assay, human CYP11B2 (aldosterone release, HTRF); assay type: cell-based; settings: G-402 cells expressing human CYP11B2; 1 μM Deoxycorticosterone
T2 construct: The expression plasmids contains the ORF for either human/cyno CYP11B1 or CYP11B2; expressed in transfected cells
T2 sequence (P19099 25-503): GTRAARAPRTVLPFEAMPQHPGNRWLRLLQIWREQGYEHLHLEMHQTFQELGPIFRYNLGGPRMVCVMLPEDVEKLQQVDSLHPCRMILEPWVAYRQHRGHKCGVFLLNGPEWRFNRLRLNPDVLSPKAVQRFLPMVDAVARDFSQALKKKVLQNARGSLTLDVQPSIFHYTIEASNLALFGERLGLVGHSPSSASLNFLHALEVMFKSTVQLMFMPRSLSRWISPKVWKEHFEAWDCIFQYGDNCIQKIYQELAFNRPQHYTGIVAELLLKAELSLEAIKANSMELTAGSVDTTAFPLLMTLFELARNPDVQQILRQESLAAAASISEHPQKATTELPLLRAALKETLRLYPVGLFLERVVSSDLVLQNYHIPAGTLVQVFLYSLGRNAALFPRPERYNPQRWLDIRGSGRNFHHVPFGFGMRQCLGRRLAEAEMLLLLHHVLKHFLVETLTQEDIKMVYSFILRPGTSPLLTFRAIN
From the text: as §1, §2, §3, §4, §5, §6

SMILES | EC50 (human CYP11B1) | EC50 (human CYP11B2)
CC(C)S(=O)(=O)N1CCC(c2cncc(N3C(=O)c4ccc(Cl)cc4C3(C)C)c2)CC1 [Example 16, 5-Chloro-3,3-dimethyl-2-[5-(1-propan-2-ylsulfonylpiperidin-4-yl)pyridin-3-yl]isoindol-1-one] | 1190 nM | 4 nM
Cc1ccncc1C(=O)N1CCC(c2cncc(N3C(=O)c4ccc(Cl)cc4C3(C)C)c2)CC1 [Example 18, 5-Chloro-3,3-dimethyl-2-[5-[1-(4-methylpyridine-3-carbonyl)piperidin-4-yl]pyridin-3-yl]isoindol-1-one] | 219 nM | 16 nM
CC1(C)c2cc(Cl)ccc2C(=O)N1c1cncc(C2CCN(C(=O)c3ccncc3Cl)CC2)c1 [Example 19, 5-Chloro-2-[5-[1-(3-chloropyridine-4-carbonyl)piperidin-4-yl]pyridin-3-yl]-3,3-dimethylisoindol-1-one] | 1340 nM | 21 nM
CC(C)S(=O)(=O)N1CCC(c2cncc(N3Cc4cc(Cl)ccc4C3=O)c2)CC1 [Example 22, 5-Chloro-2-[5-(1-propan-2-ylsulfonylpiperidin-4-yl)pyridin-3-yl]-3H-isoindol-1-one] | 7340 nM | 84 nM
Cc1ccncc1C(=O)N1CCC(c2cncc(N3Cc4cc(Cl)ccc4C3=O)c2)CC1 [Example 23, 5-Chloro-2-[5-[1-(4-methylpyridine-3-carbonyl)piperidin-4-yl]pyridin-3-yl]-3H-isoindol-1-one] | 949 nM | 97 nM
CCS(=O)(=O)N1CCC(F)(c2cncc(N3C(=O)c4ccc(Cl)cc4C3(C)C)c2)CC1 [Example 30, 5-Chloro-2-[5-(1-ethylsulfonyl-4-fluoropiperidin-4-yl)pyridin-3-yl]-3,3-dimethylisoindol-1-one] | 153 nM | 1 nM
CC(=O)N1CC(c2cncc(N3C(=O)c4ccc(Cl)cc4C3(C)C)c2)C1 [Example 33, 2-[5-(1-Acetylazetidin-3-yl)pyridin-3-yl]-5-chloro-3,3-dimethylisoindol-1-one] | 4550 nM | 148 nM
CCCS(=O)(=O)N1CCC(F)(c2cncc(N3C(=O)c4ccc(Cl)cc4C3(C)C)c2)CC1 [Example 37, 5-Chloro-2-[5-(4-fluoro-1-propylsulfonyl-4-piperidyl)-3-pyridyl]-3,3-dimethyl-isoindolin-1-one] | 98 nM | 2 nM
CC1(C)c2cc(Cl)ccc2C(=O)N1c1cncc(C2(F)CCN(S(=O)(=O)C3CC3)CC2)c1 [Example 38, 5-Chloro-2-[5-(1-cyclopropylsulfonyl-4-fluoro-4-piperidyl)-3-pyridyl]-3,3-dimethyl-isoindolin-1-one] | 575 nM | 1 nM
CC(C)S(=O)(=O)N1CCC(F)(c2cncc(N3C(=O)c4ccc(C#N)cc4C3(C)C)c2)CC1 [Example 39, 2-[5-(4-Fluoro-1-isopropylsulfonyl-4-piperidyl)-3-pyridyl]-3,3-dimethyl-1-oxo-isoindoline-5-carbonitrile] | 1850 nM | 9 nM

Now from value to compound:

EC50 (human CYP11B1) | EC50 (human CYP11B2) | SMILES
232 nM | 4 nM | CC(C)S(=O)(=O)N1CCC(F)(c2cncc(N3C(=O)c4ccc(Cl)cc4C3(C)C)c2)C1 (centres unmarked) [Example 14, 5-Chloro-2-[5-(3-fluoro-1-propan-2-ylsulfonylpyrrolidin-3-yl)pyridin-3-yl]-3,3-dimethylisoindol-1-one]
239 nM | 1 nM | CCCS(=O)(=O)N1CCC(c2cncc(N3C(=O)c4ccc(Cl)cc4C3(C)C)c2)CC1 [Example 15, 5-Chloro-3,3-dimethyl-2-[5-(1-propylsulfonylpiperidin-4-yl)pyridin-3-yl]isoindol-1-one]
1000 nM | 3 nM | CC1(C)c2cc(Cl)ccc2C(=O)N1c1cncc(C2CCN(S(=O)(=O)C3CC3)CC2)c1 [Example 17, 5-Chloro-2-[5-(1-cyclopropylsulfonylpiperidin-4-yl)pyridin-3-yl]-3,3-dimethylisoindol-1-one]
488 nM | 8 nM | CC1(C)c2cc(Cl)ccc2C(=O)N1c1cncc(C2CCN(C(=O)c3ncccc3Cl)CC2)c1 [Example 20, 5-Chloro-2-[5-[1-(3-chloropyridine-2-carbonyl)piperidin-4-yl]pyridin-3-yl]-3,3-dimethylisoindol-1-one]
1050 nM | 25 nM | CCS(=O)(=O)N1CCC(c2cncc(N3Cc4cc(Cl)ccc4C3=O)c2)CC1 [Example 21, 5-Chloro-2-[5-(1-ethylsulfonylpiperidin-4-yl)pyridin-3-yl]-3H-isoindol-1-one]
772 nM | 1.5 nM | CC(C)S(=O)(=O)N1CCC(F)(c2cncc(N3C(=O)c4ccc(Cl)cc4C3(C)C)c2)CC1 [Example 31, 5-Chloro-2-[5-(4-fluoro-1-propan-2-ylsulfonylpiperidin-4-yl)pyridin-3-yl]-3,3-dimethylisoindol-1-one]
616 nM | 7 nM | CCS(=O)(=O)N1CC(c2cncc(N3C(=O)c4ccc(Cl)cc4C3(C)C)c2)C1 [Example 32, 5-Chloro-2-[5-(1-ethylsulfonylazetidin-3-yl)pyridin-3-yl]-3,3-dimethylisoindol-1-one]
492 nM | 13 nM | CCCS(=O)(=O)N1CC(c2cncc(N3C(=O)c4ccc(Cl)cc4C3(C)C)c2)C1 [Example 34, 5-Chloro-3,3-dimethyl-2-[5-(1-propylsulfonylazetidin-3-yl)pyridin-3-yl]isoindol-1-one]
325 nM | 8 nM | CC1(C)c2cc(Cl)ccc2C(=O)N1c1cncc(C2CN(S(=O)(=O)C3CC3)C2)c1 [Example 35, 5-Chloro-2-[5-(1-cyclopropylsulfonylazetidin-3-yl)pyridin-3-yl]-3,3-dimethylisoindol-1-one]
1400 nM | 18 nM | Cc1ccncc1C(=O)N1CC(c2cncc(N3C(=O)c4ccc(Cl)cc4C3(C)C)c2)C1 [Example 36, 5-Chloro-3,3-dimethyl-2-[5-[1-(4-methylpyridine-3-carbonyl)azetidin-3-yl]pyridin-3-yl]isoindol-1-one]
2420 nM | 19 nM | CCS(=O)(=O)N1CCC(F)(c2cncc(N3C(=O)c4ccc(OC)nc4C3(C)C)c2)CC1 [Example 40, 6-[5-(1-Ethylsulfonyl-4-fluoro-4-piperidyl)-3-pyridyl]-2-methoxy-7,7-dimethyl-pyrrolo[3,4-b]pyridin-5-one]
986 nM | 35 nM | COc1ccc2c(n1)C(C)(C)N(c1cncc(C3(F)CCN(C(=O)c4cnn(C)c4)CC3)c1)C2=O [Example 41, 6-[5-[4-Fluoro-1-(1-methylpyrazole-4-carbonyl)-4-piperidyl]-3-pyridyl]-2-methoxy-7,7-dimethyl-pyrrolo[3,4-b]pyridin-5-one]
